Assay [1] relates to rat smooth muscle cells (RSMC). Description: Chemotaxis assay, rat smooth muscle cells. Type of assay: cell-based. Conditions: for inhibition of D2A-induced RSMC migration: attractant D2A; for inhibition of VN-induced RSMC migration: attractant VN. The protocol: (§1) Chemotaxis assay was performed as described (Degryse et al., 1999, 2001a, 2001b) with modified Boyden chambers. Filters (5 μm pore size, Neuro Probe, Gaithersburg, Md.) were treated with collagen I (100 μg/ml) and fibronectin (10 μg/ml, Roche).≈40-50,000 cells in serum-free DMEM were added to the upper well and the chemoattractants tested added to the lower well. When present, antibodies, or inhibitors were added in both wells. After overnight migration at 37° C., cells remaining on the upper surface of filters were scraped off and filters were fixed in methanol and stained in a solution of 10% (w/v) crystal violet in 20% (v/v) methanol. The experiments were performed at least twice in triplicate and the results, expressed as fold over control, are the mean ±SD of the number of cells counted in ten high power fields per filter. Random cell migration, i.e. migration in the absence of chemoattractant, was given the arbitrary value of 100%.

The test system of assay [2] is human HT1080 fibrosarcoma cells. As to the kind of experiment: Matrigel invasion assay. Type of assay: cell-based. The settings on record: for inhibition of EGF-dependent invasion / inhibition of insulin-dependent invasion: HT1080, 100 pM; for inhibition of VN-induced invasiveness / inhibition of uPA-induced invasiveness: HT1080, at about the same concentration (around 1 pM); for inhibition of FN-induced invasion: HT1080, at the same concentration; for stimulation of Matrigel invasiveness of HT1080 cells: substance alone, 24 hours at 37° C.; for concentration of peak stimulation of Matrigel invasiveness: HT1080, dose-dependent.

A further assay deals with KG-1 cells. As to the kind of experiment: Chemotaxis assay of non adherent cells, Boyden micro-chamber. Type of assay: cell-based, human. The settings on record: for chemotaxis of KG-1 cells: peptide as chemoattractant, 1 hour at 37° C. The method, then:
Chemotaxis assay of non adherent cells was performed as described (Degryse et al., 2001; FEBS lett. 505: 249-254) using modified Boyden micro-chamber with the exception that the filter was not treated. 50,000 cells were added in the top well in serum-free RPMI medium and allowed to migrate for 1 hour at 37° C. The molecules to be tested as chemoattractant were diluted in serum-free RPMI medium and added in the lower well of the Boyden chamber. Experiments were performed in triplicate. Results are the mean ±SD of the number of cells counted in five high power fields. Migration in the absence of chemoattractant is referred to as 100%.

The test system of assay [3] is Rat Smooth Muscle Cells and HT1080 Human Fibrosarcoma Cells. Description: Boyden chamber assays, pleiotropic inhibition of chemotaxis. Type of assay: cell-based. An excerpt:
In Boyden chamber assays, D2A-Ala and GAAG inhibit not only VN-dependent and uPA-dependent chemotaxis (as reported above), but also EGF— and UTP-dependent chemotaxis. The effect is dose-dependent. Notice that the EGF-dependent and the UTP-dependent chemotaxis work through receptors (EGF-receptor and P2Y2 receptor, respectively), that are different among themselves and are different from those employed by uPA (uPAR) and VN (αvβ3). We conclude that these two inhibitors are general inhibitors of chemotaxis.

Another assay concerns HEK-293 cells. As to the kind of experiment: Chemotaxis assay, HEK-293 cells. The settings on record: for cell migration in the presence of VN: HEK-293, VN 1 μg/ml + peptide 1 pM; for cell migration: HEK-293, peptide alone 1 pM. Type of assay: cell-based, human. The protocol:
as §1

For the next assay, the system named is HEK-293-uPAR cells. As to the kind of experiment: Chemotaxis assay, HEK-293-uPAR cells. Type of assay: cell-based, human. Conditions: HEK-293-uPAR; for cell migration in the presence of VN: VN 1 μg/ml + peptide 1 pM; for cell migration: peptide alone 1 pM. The method, then:
as §1

In assay [4] the test system is human smooth muscle cells from the coronary artery (CASMC). Description: Chemotaxis assay, human coronary artery smooth muscle cells. The class given is cell-based. The method, then:
as §1

Assay [5] relates to human smooth muscle cells from the aorta (AoSMC). As to the kind of experiment: Chemotaxis assay, human aortic smooth muscle cells. Type of assay: cell-based. The method, then:
as §1

The target in another assay is T1, uPAR-αvβ3 complexes (Homo sapiens, UniProt P05106+P06756).
T1 construct: purchased Chemicon (integrins); American Diagnostica (uPA)
As to the kind of experiment: Pull-down assay, 125I-suPAR with purified αvβ3 integrin. Type of assay: binding. The method, then:
(§2) Soluble uPAR (suPAR) was radioiodinated (as for VN, see above) at a specific activity of 1.5×10^5 cpm/ng. A mix composed of 2 μg of either purified αvβ3 or α5β1 integrin, and […] of ^125I-suPAR was incubated for 4 hours at 4° C. in the absence (control) or in the presence of 4 μg of uPA with or without 5 μg of either D2A or D2A-Ala peptide in binding buffer, (RPMI plus 0.02% BSA, 10 mM HEPES pH 7.4, total volume 300 μl). Complexes were immunoprecipitated with 3 μg of anti-αvβ3 (LM609) or anti-α5β1 monoclonal antibody, and 60 μl of protein G-agarose beads (Amersham Biosciences), Beads were washed three times in binding buffer, extracted in reducing sample buffer, and proteins were fractionated by SDS-PAGE. Gels were analyzed by autoradiography and densitometry. Results are presented as percentage of relative density units normalized to uPA alone.

For the next assay, the system named is RSMC. As to the kind of experiment: Immunofluorescence microscopy, actin cytoskeleton and cell morphology. Type of assay: cell-based, rat. The settings on record: 30 minutes at 37° C., peptide 1 pM or VN 1 μg/ml. The protocol: (§3) As previously described (Degryse et al., 1999; 2004) 15,000-25,000 cells (20-40% confluence), were seeded on glass coverslips in 2 cm^2 well, cultured for 24 hours in DMEM plus 10% FCS, washed with PBS and cultured for another 24 hours without FCS. After stimulation, RSMC were fixed for 20 min at RT with 3% paraformaldehyde, 2% sucrose in PBS pH 7.5, washed 3 times with PBS-BSA 0.2%, permeabilized with 20 mM hepes pH 7.4, 300 mM saccharose, 50 mM NaCl, 3 mM MgCl2, 0.5% (v/v) Triton X-100 for 3 min at 4° C., and washed 3 times with PBS-BSA 0.2%. RSMC were incubated in PBS-BSA 2% for 15 min at 37° C., then with anti-Stat1 primary antibodies for 30 min at 37° C., washed 3 times with PBS-BSA 0.2%, and further incubated with PBS-BSA 2% for 15 min at 37° C. Cells were stained with the secondary TRITC-antibody and with FITC-phalloidin for visualization of filamentous actin, for 30 min at 37° C. DAPI (4′,6-diamidino-2-phenylindole, Roche) was used to label the nucleus. Finally, after 3 washes with PBS-BSA 0.2%, one with distilled water, coverslips were mounted with 20% (w/v) Mowiol. Fluorescence Photographs were taken with a Zeiss Axiophot microscope

Another assay deals with Stat1. As to the kind of experiment: Immunofluorescence microscopy, Stat1 distribution. Conditions: RSMC; for Stat1 activation and translocation into the nucleus: 30 minutes at 37° C., peptide 1 pM or VN 1 μg/ml. The class given is cell-based, rat. The method, then: as §3
To quantify the activation of Stat1, random pictures were taken and nuclei positively stained for Stat1 were counted and expressed in percent.

A further assay has as its system LB6-D1HD3 cells. As to the kind of experiment: Chemotaxis assay, LB6-D1HD3 cells (uPAR lacking domain 2). Type of assay: cell-based, mouse. The method, then:
as §1

Another assay concerns the target T2, uPAR-α5β1 complexes (Homo sapiens, UniProt P05556+P08648).
T2 construct: purchased Chemicon (integrins); American Diagnostica (uPA)
As to the kind of experiment: Pull-down assay, 125I-suPAR with purified α5β1 integrin. The class given is binding. The settings on record: in the presence of uPA. The method, then: as §2

T1 sequence (P06756 31-889 limits assumed): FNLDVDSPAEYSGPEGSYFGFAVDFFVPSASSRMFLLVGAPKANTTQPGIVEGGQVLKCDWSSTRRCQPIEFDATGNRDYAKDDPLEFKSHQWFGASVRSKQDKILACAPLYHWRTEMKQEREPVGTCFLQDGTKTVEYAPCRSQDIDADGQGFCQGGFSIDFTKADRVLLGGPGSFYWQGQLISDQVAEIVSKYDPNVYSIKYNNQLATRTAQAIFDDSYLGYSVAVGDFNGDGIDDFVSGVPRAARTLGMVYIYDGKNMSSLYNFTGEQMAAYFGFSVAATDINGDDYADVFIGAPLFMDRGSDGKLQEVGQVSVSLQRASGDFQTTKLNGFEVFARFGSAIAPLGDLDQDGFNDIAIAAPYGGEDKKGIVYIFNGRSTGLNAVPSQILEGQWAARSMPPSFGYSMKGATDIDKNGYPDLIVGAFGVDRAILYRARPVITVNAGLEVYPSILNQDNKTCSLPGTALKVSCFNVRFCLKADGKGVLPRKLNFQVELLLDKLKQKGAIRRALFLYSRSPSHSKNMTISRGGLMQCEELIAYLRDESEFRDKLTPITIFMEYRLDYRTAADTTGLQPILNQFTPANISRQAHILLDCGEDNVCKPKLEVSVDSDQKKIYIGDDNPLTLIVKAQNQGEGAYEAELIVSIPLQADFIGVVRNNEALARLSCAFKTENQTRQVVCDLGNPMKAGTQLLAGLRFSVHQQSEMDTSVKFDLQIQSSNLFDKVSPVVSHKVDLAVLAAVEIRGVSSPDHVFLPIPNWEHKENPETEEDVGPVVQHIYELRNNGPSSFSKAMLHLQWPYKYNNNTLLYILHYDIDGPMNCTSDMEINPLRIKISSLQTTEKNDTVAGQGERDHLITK
T1 sequence (P06756 891-1048 limits assumed): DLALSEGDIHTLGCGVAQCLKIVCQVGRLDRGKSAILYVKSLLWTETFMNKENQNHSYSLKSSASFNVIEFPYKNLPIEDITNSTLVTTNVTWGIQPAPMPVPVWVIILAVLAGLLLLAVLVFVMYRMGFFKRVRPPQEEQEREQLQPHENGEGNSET
T1 sequence (P05106 27-788): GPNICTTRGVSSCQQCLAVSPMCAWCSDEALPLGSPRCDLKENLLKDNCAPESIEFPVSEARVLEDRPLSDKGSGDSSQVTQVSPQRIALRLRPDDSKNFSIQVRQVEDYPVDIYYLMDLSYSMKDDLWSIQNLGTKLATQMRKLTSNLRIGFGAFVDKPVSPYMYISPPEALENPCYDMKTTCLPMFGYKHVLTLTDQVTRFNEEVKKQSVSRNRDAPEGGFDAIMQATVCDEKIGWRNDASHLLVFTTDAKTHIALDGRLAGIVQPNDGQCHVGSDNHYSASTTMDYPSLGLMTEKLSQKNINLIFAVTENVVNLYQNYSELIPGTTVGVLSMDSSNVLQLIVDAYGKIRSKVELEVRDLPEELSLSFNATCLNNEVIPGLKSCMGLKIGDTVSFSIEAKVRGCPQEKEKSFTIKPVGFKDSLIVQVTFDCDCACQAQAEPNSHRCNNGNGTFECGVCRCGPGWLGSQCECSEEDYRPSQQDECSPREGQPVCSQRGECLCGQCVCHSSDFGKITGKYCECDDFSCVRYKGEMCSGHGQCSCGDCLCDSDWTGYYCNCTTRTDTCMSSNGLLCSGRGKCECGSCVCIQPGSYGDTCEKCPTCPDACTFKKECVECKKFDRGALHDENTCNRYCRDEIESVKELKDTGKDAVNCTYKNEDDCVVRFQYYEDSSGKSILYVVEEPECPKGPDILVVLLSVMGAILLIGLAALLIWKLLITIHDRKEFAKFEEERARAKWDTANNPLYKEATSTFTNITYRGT
T2 sequence (P08648 42-894 limits assumed): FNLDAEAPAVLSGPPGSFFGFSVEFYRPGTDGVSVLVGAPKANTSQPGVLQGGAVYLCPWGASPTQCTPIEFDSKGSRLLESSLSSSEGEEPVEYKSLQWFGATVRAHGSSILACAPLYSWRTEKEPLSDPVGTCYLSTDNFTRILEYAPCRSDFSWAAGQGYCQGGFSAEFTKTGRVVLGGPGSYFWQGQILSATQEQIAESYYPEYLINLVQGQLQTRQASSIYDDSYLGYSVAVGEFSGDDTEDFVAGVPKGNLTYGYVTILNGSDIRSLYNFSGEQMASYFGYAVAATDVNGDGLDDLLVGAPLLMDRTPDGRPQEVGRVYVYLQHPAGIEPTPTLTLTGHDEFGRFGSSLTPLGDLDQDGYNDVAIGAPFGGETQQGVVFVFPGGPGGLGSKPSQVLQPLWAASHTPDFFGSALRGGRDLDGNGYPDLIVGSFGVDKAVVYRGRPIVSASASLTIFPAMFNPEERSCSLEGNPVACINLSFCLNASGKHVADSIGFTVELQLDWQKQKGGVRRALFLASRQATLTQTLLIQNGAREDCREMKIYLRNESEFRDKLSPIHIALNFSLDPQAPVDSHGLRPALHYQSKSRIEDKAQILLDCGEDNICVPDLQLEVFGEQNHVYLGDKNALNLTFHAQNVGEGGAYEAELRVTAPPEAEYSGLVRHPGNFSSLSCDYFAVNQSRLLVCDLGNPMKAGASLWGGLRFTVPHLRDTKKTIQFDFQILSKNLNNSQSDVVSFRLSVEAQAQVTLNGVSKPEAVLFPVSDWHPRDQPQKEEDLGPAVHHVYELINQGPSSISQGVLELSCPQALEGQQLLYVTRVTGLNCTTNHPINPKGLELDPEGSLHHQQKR
T2 sequence (P08648 895-1049 limits assumed): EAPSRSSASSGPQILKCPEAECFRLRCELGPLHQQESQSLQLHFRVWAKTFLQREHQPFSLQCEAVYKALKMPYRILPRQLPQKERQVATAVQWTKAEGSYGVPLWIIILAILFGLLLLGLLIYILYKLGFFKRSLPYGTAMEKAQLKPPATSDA
T2 sequence (P05556 21-798): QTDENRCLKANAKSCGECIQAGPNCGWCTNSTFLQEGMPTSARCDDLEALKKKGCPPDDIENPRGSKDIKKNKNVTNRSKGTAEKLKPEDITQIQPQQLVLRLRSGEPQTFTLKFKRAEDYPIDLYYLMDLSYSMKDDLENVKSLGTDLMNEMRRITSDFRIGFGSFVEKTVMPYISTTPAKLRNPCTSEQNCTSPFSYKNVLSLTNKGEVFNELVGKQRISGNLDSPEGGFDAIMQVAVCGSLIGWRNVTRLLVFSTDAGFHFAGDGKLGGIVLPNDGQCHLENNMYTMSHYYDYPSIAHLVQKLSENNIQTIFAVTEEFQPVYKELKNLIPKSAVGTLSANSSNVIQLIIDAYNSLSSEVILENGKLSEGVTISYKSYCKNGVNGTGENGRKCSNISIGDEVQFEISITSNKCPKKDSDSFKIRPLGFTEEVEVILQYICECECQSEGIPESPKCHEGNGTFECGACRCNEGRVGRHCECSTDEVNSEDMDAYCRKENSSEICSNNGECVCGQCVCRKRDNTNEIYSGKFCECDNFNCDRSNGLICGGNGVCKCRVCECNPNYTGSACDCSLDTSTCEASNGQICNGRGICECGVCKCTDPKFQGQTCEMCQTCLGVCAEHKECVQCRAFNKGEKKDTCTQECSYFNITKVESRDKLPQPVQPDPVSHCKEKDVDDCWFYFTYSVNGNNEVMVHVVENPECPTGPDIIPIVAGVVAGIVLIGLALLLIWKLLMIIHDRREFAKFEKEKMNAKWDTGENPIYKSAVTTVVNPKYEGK

Turning to `N#C/C(=C/c1ccc(O)c(O)c1)C(=O)NCc1ccccc1` [AG-490, reference compound], in assay [1] (RSMC), the “inhibition of D2A-induced RSMC migration” value is “inhibited” and the “inhibition of VN-induced RSMC migration” value is given as “inhibited”.
Regarding `COc1cccc(-c2cc(=O)c3ccccc3o2)c1N` [PD98059, reference compound], in assay [1] (RSMC), the “inhibition of D2A-induced RSMC migration” value was “Neither VN- nor D2A-induced cell migration were blocked” and the “inhibition of VN-induced RSMC migration” value was “Neither VN- nor D2A-induced cell migration were blocked”.
“GAAG (Amino acid sequence motif) [shorter version of D2A-Ala]”: in assay [2], the “inhibition of EGF-dependent invasion” value is reported as “inhibit”, the “inhibition of insulin-dependent invasion” value is “inhibit”, the “inhibition of VN-induced invasiveness” value is reported as “inhibit” and the “inhibition of uPA-induced invasiveness” value is “inhibit”. Moreover, in [2], the “inhibition of FN-induced invasion” value is “inhibit” and the “stimulation of Matrigel invasiveness of HT1080 cells” value (from here on “stimulation … of HT1080 cells”) is given as “have no effects”. Also, in the assay with KG-1 cells, the “inhibition of vitronectin (VN)-induced chemotaxis of KG-1 cells” value is given as “inhibited”. Further, in assay [3], the “inhibition of VN-dependent chemotaxis” value is on record as “inhibit”, the “inhibition of uPA-dependent chemotaxis” value was “inhibit”, the “inhibition of EGF-dependent chemotaxis” value is “inhibit” and the “inhibition of UTP-dependent chemotaxis” value was “inhibit”.
As to GEEG, in [2], the “concentration of peak stimulation of Matrigel invasiveness” value is reported as “around 1 pM” and the “stimulation … of HT1080 cells” value is on record as “stimulate”.
As for “IQEGAAGRPKDDR [D2A-Ala, D2A with two glutamic acids changed into two alanines]”, in the assay with HEK-293 cells, the “cell migration in the presence of VN” value was 94.50 ± 19.58 % of control and the cell migration is recorded as 110.19 ± 26.63 % of control. Moreover, in the assay on HEK-293-uPAR cells, the “cell migration in the presence of VN” value is 108.18 ± 13.90 % of control and the cell migration is 108.72 ± 17.37 % of control. Also, in [1] (RSMC), the “inhibition of FN-induced migration” value is recorded as “inhibited”, the “inhibition of LN-induced migration” value is given as “inhibited”, the “stimulation of RSMC migration (chemotactic activity)” value (“stimulation of RSMC migration” below) was “failed to stimulate cell migration” and the “inhibition of VN-induced RSMC migration” value is given as “completely abrogated”. In addition, in [1] (VN-stimulated RSMC), the “concentration at which an effect on VN-induced cell migration is already visible” value was 10 fM and the “concentration giving complete inhibition of VN-induced cell migration” value came to 1 pM. Also, the “inhibition of VN-induced migration” value in assay [4] was “totally inhibited”. Further, the “inhibition of VN-induced migration” value in assay [5] is on record as “totally inhibited”. Moreover, at uPAR-αvβ3 complexes (in the presence of uPA), the “effect on uPAR-αvβ3 co-immunoprecipitation” value was “prevented”. The “cell morphology and actin cytoskeleton organization” value with RSMC is “did not promote the change of morphology and reorganization of actin cytoskeleton”. The “Stat1 activation and translocation into the nucleus” value in the assay on Stat1 is listed as “failed to activate Stat1”. Moreover, the “inhibition of VN-induced translocation of Stat1” value with Stat1 (peptide 1 pM with VN 1 μg/ml) is “inhibited”. Besides, in assay [2], the “inhibition of EGF-dependent invasion” value was “inhibit”, the “inhibition of insulin-dependent invasion” value is listed as “inhibit”, the “inhibition of VN-induced invasiveness” value is “inhibit” and the “inhibition of uPA-induced invasiveness” value is “inhibit”. In [2], the “inhibition of FN-induced invasion” value is listed as “inhibit” and the “stimulation … of HT1080 cells” value was “have no effects”. In the assay on KG-1 cells, the “inhibition of vitronectin (VN)-induced chemotaxis of KG-1 cells” value is reported as “inhibited”. In assay [3], the “inhibition of VN-dependent chemotaxis” value was “inhibit”, the “inhibition of uPA-dependent chemotaxis” value was “inhibit”, the “inhibition of EGF-dependent chemotaxis” value was “inhibit” and the “inhibition of UTP-dependent chemotaxis” value is reported as “inhibit”.
In the case of IQEGEEGRPKDDR [D2A], in the assay on HEK-293 cells, the “cell migration in the presence of VN” value is 190.23 ± 35.24 % of control and the cell migration is reported as 106.98 ± 11.78 % of control. Further, in the assay with HEK-293-uPAR cells, the “cell migration in the presence of VN” value is given as 400.88 ± 17.41 % of control and the cell migration is reported as 325.48 ± 14.42 % of control. Besides, the “maximal increase of migration” value in the assay on LB6-D1HD3 cells (LB6-D1HD3 cells, at 10 pM, peptide per se) worked out at 2 fold. The “effect on response to VN of non-responsive LB6-D1HD3 cells” value with LB6-D1HD3 cells (with VN 1 μg/ml) is reported as “restored the response to VN”. The “stimulation of RSMC migration” value in assay [1] (RSMC) is “equally active in stimulating migration”. In assay [1] (RSMC, D2A 1 pM combined with VN 1 μg/ml), the “additivity of chemotactic effects with VN” value is reported as “did not further increase cell migration”. Further, in the assay with uPAR-αvβ3 complexes (uPA plus peptide, αvβ3), the “reduction of coimmunoprecipitated suPAR compared to uPA alone” value is given as “approximately 50%”. The “effect on uPA-induced co-immunoprecipitation of suPAR and α5β1” value with uPAR-α5β1 complexes is “can also prevent”. Also, the “cell morphology and actin cytoskeleton organization” value with RSMC is “a complete change of morphology and cytoskeleton organization occurred”. Besides, the “Stat1 activation and translocation into the nucleus” value in the assay with Stat1 is “induced its translocation into the nucleus”. Moreover, in assay [2], the “concentration of peak stimulation of Matrigel invasiveness” value is given as “around 1 pM” and the “stimulation … of HT1080 cells” value was “stimulate”. The “chemotaxis of KG-1 cells” value in the assay on KG-1 cells is “stimulated migration”.
Regarding RDDKPRGEEGEQI [D2B], the “stimulation of RSMC migration” value in assay [1] (RSMC) is recorded as “equally active in stimulating migration”. The “chemotaxis of KG-1 cells” value with KG-1 cells is listed as “also promotes the migration”.

The values above are taken from patent US20080280833A1, “Therapeutic Peptides Derived from Urokinase Plasminogen Activator Receptor” (priority 2005, published 2008).
